Two compounds from ChEMBL document CHEMBL1159348, “S(R)-podolactone D, a new sulfoxide-containing norditerpene dilactone from Podocarpus macrophyllus var. maki” (J Nat Prod, 2003) can be followed below.

The subject of the assay is P388. The experiment in a line: Cytotoxicity against mouse P388 cells. The class given is functional, cell-based.

≈ marks a conversion by molar mass, not a printed value.

Compound `C[S@+]([O-])C[C@](C)(O)[C@H]1OC(=O)C=C2[C@@]13O[C@@H]3[C@H]1OC(=O)[C@@]3(C)C=CC[C@@]2(C)[C@@H]13` (stereo in doubt; 1) returned an IC50 of 0.52 µg/mL (≈ 1.27 µM).
Then `C[S@+]([O-])C[C@](C)(O)[C@H]1OC(=O)C=C2[C@@]13O[C@@H]3[C@H]1OC(=O)[C@@]3(C)C=CC[C@@]2(C)[C@@H]13` (stereo in doubt; 2), with 0.23 µg/mL (≈ 0.563 µM).
